Experimental data from patent publication US20050095240A1, “NaCT as a target for lifespan expansion and weight reduction” (Medical College of Georgia Research, priority 2002, published 2005).

Assays:
NaCT in HepG2 cells = target: T1, NaCT in HepG2 cells (Homo sapiens, UniProt Q86YT5); assay: Citrate uptake in HepG2 cells (constitutively expressed NaCT); type: cell-based; settings: Li+ 2 mM, valproate 0.6 μM, carbamazepine 50 μM
T1 construct: the effect of Li^+ on constitutively expressed NaCT in human liver cells was studied; host or cells: HepG2
Method: (§1) Uptake measurement in human liver cell lines. The human liver cell lines (HepG2 and Huh-7) were cultured to confluency in 24-well culture plates using appropriate culture medium. The HepG2 cell line was obtained from American Type Culture Collection (Manasses, Va.). The Huh-7 cell line (Bode et al., (2002) Am. J. Physiol. 283, G1062-G1073) was provided by Dr. Barrie P. Bode (St. Louis University, St. Louis, Mo.). Uptake measurements in monolayer cultures of these cells were measured as described above for the heterologously expressed NaCTs.

rat NaCT = target: T2, rat NaCT (Rattus norvegicus, UniProt Q8CJ44); assay: Uptake via rat NaCT expressed in HRPE cells; type: cell-based
T2 sequence (Q8CJ44 1-572): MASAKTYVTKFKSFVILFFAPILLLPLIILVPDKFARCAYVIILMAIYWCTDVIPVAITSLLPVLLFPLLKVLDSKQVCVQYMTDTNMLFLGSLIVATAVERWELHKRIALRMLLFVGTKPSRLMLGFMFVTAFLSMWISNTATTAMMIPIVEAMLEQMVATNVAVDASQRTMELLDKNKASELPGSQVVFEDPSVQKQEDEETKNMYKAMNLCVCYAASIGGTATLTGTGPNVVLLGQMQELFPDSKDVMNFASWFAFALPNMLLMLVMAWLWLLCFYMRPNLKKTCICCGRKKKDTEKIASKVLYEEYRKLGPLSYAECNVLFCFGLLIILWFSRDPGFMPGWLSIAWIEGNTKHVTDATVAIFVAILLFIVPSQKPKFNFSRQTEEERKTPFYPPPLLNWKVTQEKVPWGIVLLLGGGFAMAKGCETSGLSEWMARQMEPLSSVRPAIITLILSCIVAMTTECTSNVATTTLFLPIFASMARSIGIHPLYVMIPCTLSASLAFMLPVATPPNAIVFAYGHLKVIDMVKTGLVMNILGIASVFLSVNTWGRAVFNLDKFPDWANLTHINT

mouse NaCT = target: T3, mouse NaCT (Mus musculus, UniProt Q67BT3); assay: Transport via mouse NaCT expressed in HRPE cells; type: cell-based; settings: Li+ 2 mM, valproate 0.6 μM, carbamazepine 50 μM
T3 sequence (Q67BT3 1-572): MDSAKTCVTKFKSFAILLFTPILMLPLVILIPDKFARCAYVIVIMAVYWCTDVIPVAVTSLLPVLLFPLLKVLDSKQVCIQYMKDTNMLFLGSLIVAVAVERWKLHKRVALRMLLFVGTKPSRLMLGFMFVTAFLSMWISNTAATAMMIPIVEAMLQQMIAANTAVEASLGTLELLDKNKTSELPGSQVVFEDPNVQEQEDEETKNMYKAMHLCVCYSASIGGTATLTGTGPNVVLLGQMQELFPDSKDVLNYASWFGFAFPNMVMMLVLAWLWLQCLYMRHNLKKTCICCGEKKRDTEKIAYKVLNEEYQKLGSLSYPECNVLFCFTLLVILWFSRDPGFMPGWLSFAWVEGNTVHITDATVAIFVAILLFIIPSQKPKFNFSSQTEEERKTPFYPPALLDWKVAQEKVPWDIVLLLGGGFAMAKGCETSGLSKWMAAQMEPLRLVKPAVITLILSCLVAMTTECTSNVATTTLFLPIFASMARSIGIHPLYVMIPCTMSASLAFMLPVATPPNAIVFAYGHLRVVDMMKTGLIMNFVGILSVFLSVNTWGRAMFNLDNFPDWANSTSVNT

zebrafish NaCT = zebrafish NaCT (Danio rerio, UniProt A0A2R8QQN0, K78Q); assay: Citrate uptake via zebrafish NaCT expressed in HRPE cells; type: cell-based
HepG2 cells = assay: Incorporation of citrate and acetate into cellular lipids; type: cell-based, human; settings: 24 hours
Text: The cellular lipids were then extracted by n-hexane/isopropanol (3:2, v/v) as described by Schamagl et al. (Scharnagl et al., (2001) Biochem. Pharmacol. 62, 1545-1555).

human NaCT = human NaCT (Homo sapiens, UniProt Q86YT5); assay: Uptake via human NaCT expressed in HRPE cells; type: cell-based
[1] = target: chimeric transporter (human NaCT 496-516 replaced with rat NaCT 500-520) (Homo sapiens, UniProt Q86YT5, F500L/T516A); assay: Citrate uptake via human/rat chimeric NaCT in HRPE cells; type: cell-based; settings: Li+ 10 mM; citrate 20 μM
ceNaCT = target: T4, ceNaCT (Caenorhabditis elegans, UniProt P32739, I91S/L182M); assay: Uptake via ceNaCT expressed in HRPE cells; settings: Li+ 2 mM, valproate 0.6 μM, carbamazepine 50 μM
T4 sequence (P32739 1-551 I91S/L182M): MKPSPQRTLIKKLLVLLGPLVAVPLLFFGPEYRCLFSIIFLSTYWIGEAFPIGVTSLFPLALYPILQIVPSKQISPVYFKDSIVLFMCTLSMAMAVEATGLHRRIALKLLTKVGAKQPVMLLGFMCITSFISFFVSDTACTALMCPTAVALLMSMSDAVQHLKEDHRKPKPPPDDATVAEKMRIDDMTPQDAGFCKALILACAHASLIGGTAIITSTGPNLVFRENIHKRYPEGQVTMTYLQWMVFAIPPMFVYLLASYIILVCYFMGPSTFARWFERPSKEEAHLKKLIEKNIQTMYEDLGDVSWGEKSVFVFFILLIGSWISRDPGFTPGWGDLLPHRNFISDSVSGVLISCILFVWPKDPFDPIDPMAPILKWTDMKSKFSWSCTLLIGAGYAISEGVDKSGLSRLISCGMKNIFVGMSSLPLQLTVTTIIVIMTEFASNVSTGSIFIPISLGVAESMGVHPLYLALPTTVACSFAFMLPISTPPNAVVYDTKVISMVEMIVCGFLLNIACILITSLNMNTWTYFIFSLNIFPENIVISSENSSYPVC

[2] = patients under treatment; cited from earlier work
[3] = target: Phe→Leu mutant of human NaCT (Homo sapiens, UniProt Q86YT5, F500L); assay: Citrate uptake via Phe→Leu mutant of human NaCT in HRPE cells; type: cell-based; settings: citrate 20 μM; increasing Li+
NaCT in Huh-7 cells = target: T5, NaCT in Huh-7 cells (Homo sapiens, UniProt Q86YT5); assay: Citrate uptake in Huh-7 cells (constitutively expressed NaCT); type: cell-based; settings: Li+ 2 mM
T5 construct: the effect of Li^+ on constitutively expressed NaCT in human liver cells was studied; endogenous in cells; host or cells: Huh-7 (gift of Dr. Barrie P. Bode)
Method: as §1

[4] = Li+ 2 mM, valproate 0.6 μM, carbamazepine 50 μM

Sequence of human NaCT (Q86YT5 whole entry): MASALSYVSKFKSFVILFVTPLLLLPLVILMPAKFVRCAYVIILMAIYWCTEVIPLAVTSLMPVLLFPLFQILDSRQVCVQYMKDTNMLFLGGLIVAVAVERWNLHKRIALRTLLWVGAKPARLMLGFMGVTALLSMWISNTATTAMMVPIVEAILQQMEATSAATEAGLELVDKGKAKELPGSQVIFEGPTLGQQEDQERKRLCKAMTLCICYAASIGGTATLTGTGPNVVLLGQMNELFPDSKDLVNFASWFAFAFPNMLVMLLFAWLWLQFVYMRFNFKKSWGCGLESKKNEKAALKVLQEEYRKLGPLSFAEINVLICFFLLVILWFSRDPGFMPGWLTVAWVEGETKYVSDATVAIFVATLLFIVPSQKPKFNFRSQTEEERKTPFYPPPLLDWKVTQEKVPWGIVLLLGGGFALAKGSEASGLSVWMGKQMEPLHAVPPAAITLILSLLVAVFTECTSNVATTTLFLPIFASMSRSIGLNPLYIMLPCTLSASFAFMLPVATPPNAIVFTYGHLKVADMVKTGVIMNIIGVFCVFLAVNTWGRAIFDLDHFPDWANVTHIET
T1 sequence (Q86YT5 whole entry): as above
T5 sequence (Q86YT5 whole entry): as above
Sequence of zebrafish NaCT (A0A2R8QQN0 2-582 K78Q): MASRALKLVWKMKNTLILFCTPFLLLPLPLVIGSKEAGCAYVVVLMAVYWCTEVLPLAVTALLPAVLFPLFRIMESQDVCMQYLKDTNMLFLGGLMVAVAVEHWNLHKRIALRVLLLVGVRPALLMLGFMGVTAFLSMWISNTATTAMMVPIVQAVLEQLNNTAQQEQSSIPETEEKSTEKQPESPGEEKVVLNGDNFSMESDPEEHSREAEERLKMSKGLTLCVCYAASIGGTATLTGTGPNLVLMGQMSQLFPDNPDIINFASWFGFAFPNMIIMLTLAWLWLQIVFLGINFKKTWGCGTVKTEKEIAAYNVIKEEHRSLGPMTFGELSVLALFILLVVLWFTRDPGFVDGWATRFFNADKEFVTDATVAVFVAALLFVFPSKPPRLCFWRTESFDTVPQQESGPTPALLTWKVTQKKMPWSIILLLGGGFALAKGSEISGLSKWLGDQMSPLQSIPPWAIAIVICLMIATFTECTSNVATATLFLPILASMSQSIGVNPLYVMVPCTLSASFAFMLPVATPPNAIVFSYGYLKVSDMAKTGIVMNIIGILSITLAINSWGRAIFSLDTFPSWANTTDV
Sequence of chimeric transporter (human NaCT 496-516 replaced with rat NaCT 500-520) (Q86YT5 whole entry F500L/T516A): as the sequence (Q86YT5 whole entry) above, with F500L, T516A counted along it
Sequence of Phe→Leu mutant of human NaCT (Q86YT5 whole entry F500L): as the sequence (Q86YT5 whole entry) above, with F500L counted along it

With `[Li+]` [Li^+, lithium] the “Citrate uptake, HepG2 cells” value (NaCT in HepG2 cells) was 21.2 ± 0.6 pmol/min/mg protein, the “Citrate uptake, HepG2 cells, percent of corresponding control” value (NaCT in HepG2 cells) was 222% and the “Citrate uptake, rNaCT” value (rat NaCT; [4]) was 92.3 ± 8.4 pmol/10^6 cells/min. The “Citrate uptake, rNaCT, percent of corresponding control” value (rat NaCT; [4]) was 62%, the IC50 (rat NaCT; read-out: IC50 for inhibition of citrate uptake via rat NaCT, citrate 20 μM) was 2100 ± 800 µM and the “Citrate uptake, mNaCT” value (mouse NaCT) was 29.4 ± 1.7 pmol/10^6 cells/min. The “Citrate uptake, mNaCT, percent of corresponding control” value (mouse NaCT) was 69%, the “Citrate uptake, zfNaCT” value (zebrafish NaCT) was 298.0 ± 12.6 (61) pmol/10^6 cells/min and the “Citrate uptake, zfNaCT, percent of corresponding control” value (zebrafish NaCT) was 298.0 ± 12.6 (61) percent. The “Stimulation of incorporation of [^14C]citrate into lipid fraction” value (HepG2 cells; Li+ 2 mM) was 2.6±0.1 fold, the “Effect on incorporation of [^14C]acetate into lipids” value (HepG2 cells; Li+ 2 or 10 mM) was “did not have any effect” and the “Increase of affinity for citrate” value (human NaCT; 10 mM Li+) was “approximately 7 fold”. For the same compound, the “Stimulation of human NaCT by Li+” value (human NaCT; 10 mM Li+, 60 mM Na+) was 7 fold, the “Stimulation of human NaCT by Li+” value (human NaCT; 10 mM Li+, 140 mM Na+) was 3 fold and the “Citrate uptake, hNaCT” value (human NaCT; [4]) was 105.2 ± 11.6 pmol/10^6 cells/min. For the same compound, the “Citrate uptake, hNaCT, percent of corresponding control” value (human NaCT; [4]) was 203%, the “Stimulation of human NaCT activity” value (human NaCT; Li+ 2.5 mM) was 2.4 fold and the EC50 (human NaCT; read-out: Concentration of Li+ needed for half-maximal stimulation of citrate uptake, citrate 20 μM) was 2100 ± 700 µM. The “Effect of Li+ on activity of the chimeric transporter” value [1] was “not affected”, the “Citrate uptake, ceNaCT” value (ceNaCT) was 43.6 ± 0.8 pmol/10^6 cells/min and the “Citrate uptake, ceNaCT, percent of corresponding control” value (ceNaCT) was 100%. For the same compound, the “Plasma concentrations / therapeutic plasma levels in humans” value [2] was 800 to 2000 µM, the “Effect of Li+ on transport function of the mutant” value [3] was “not affected” and the “Citrate uptake, Huh-7 cells” value (NaCT in Huh-7 cells) was 20.0 ± 0.5 pmol/min/mg protein. For the same compound, the “Citrate uptake, Huh-7 cells, percent of corresponding control” value (NaCT in Huh-7 cells) was 196%.
